From patent US10238670B2, “9-aminomethyl minocycline compounds and methods of use thereof in urinary tract infection (UTI) treatment” (Paratek Pharmaceuticals, Inc., priority 2016, dated 2019)
Where two headings read alike, the source gives them in different places.

Assay: Phase 1b study in female adults with cystitis, urine PK
Type: in vivo, human
Conditions: for Ae0-24 (amount excreted in urine): mean; for clearance: female, human, urine and plasma
Experimental: Urine was collected, the volume recorded, and analyzed for Compound 1 concentration at the following times: • Day 1 to 2: pooled total urine 0 to 4, 4 to 8, 8 to 12, and 12-24 hours after the t=0 h dose; Collection of the 12 to 24 h sample should be completed prior to the t=24 h dose on Day 2; • Day 5 to 6: pooled total urine 0 to 4, 4 to 8, 8 to 12, and 12-24 hours after the t=96 h dose;
Urine was pooled during the intervals above. At the end of each interval, the time and total volume were recorded.
Compound 1 urine concentration data was used to determine the amount excreted in a dosing interval, the urinary excretion rate, and, in conjunction with the plasma concentration data, to estimate the renal clearance (CLr) of Compound 1.
Urine was collected and the volume recorded at the following times: • Day 1 to 2: pooled total urine 0 to 4, 4 to 8, 8 to 12, and 12-24 hours after the t=0 h dose; • Day 5 to 6: pooled total urine 0 to 4, 4 to 8, 8 to 12, and 12-24 hours after the t=96 h dose;
At the end of each collection time period the pooled urine was frozen at −20° C. or colder and the total volume of urine collected for the time period was recorded. The samples were kept frozen at −20° C. or colder pending shipment to the bioanalytical laboratory.
The urine sample volume, its Compound 1 concentration, the amount of Compound 1 excreted in the urine (product of volume and concentration) over a dosing interval, the urinary excretion rates and renal clearance (CLr) of Compound 1 following the initial Day 1 and final Day 5 doses were summarized by the treatment groups.

[1] = Day 1, 0-4 hour Post t = 0, IV_PO300
[2] = Day 1, 0-4 hour Post t = 0, PO300
[3] = Day 1, 0-4 hour Post t = 0, PO450
[4] = Day 1, 4-8 hour Post t = 0, IV_PO300
[5] = Day 1, 4-8 hour Post t = 0, PO300
[6] = Day 1, 4-8 hour Post t = 0, PO450
[7] = Day 1, 8-12 hour Post t = 0, IV_PO300
[8] = Day 1, 8-12 hour Post t = 0, PO300
[9] = Day 1, 8-12 hour Post t = 0, PO450
[10] = Day 1-2, 12-24 hour Post t = 0, IV_PO300
[11] = Day 1-2, 12-24 hour Post t = 0, PO300
[12] = Day 1-2, 12-24 hour Post t = 0, PO450
[13] = Day 1, 200 mg IV, 300 mg po (n = 11)
[14] = Day 5, 0-4 hour Post t = 96, IV_PO300
[15] = Day 5, 0-4 hour Post t = 96, PO300
[16] = Day 5, 0-4 hour Post t = 96, PO450
[17] = Day 5, 4-8 hour Post t = 96, IV_PO300
[18] = Day 5, 4-8 hour Post t = 96, PO300
[19] = Day 5, 4-8 hour Post t = 96, PO450
[20] = Day 5, 8-12 hour Post t = 96, IV_PO300
[21] = Day 5, 8-12 hour Post t = 96, PO300
[22] = Day 5, 8-12 hour Post t = 96, PO450
[23] = Day 5-6, 12-24 hour Post t = 96, IV_PO300
[24] = Day 5-6, 12-24 hour Post t = 96, PO300
[25] = Day 5-6, 12-24 hour Post t = 96, PO450
[26] = Day 5, 200 mg IV, 300 mg po (n = 11)

Compound: CN(C)c1cc(CNCC(C)(C)C)c(O)c2c1C[C@H]1C[C@H]3[C@H](N(C)C)C(O)=C(C(N)=O)C(=O)[C@@]3(O)C(O)=C1C2=O [Compound 1, 9-[(2,2-dimethyl-propylamino)-methyl]-minocycline]
- Urine Concentration, Mean [1]: 65360.0 ng/mL
- Urine Concentration, Median [1]: 55000.0 ng/mL
- Urine Concentration, Mean [2]: 14003.0 ng/mL
- Urine Concentration, Median [2]: 14020.0 ng/mL
- Urine Concentration, Mean [3]: 23008.0 ng/mL
- Urine Concentration, Median [3]: 10500.0 ng/mL
- Urine Concentration, Mean [4]: 43548.2 ng/mL
- Urine Concentration, Median [4]: 40900.0 ng/mL
- Urine Concentration, Mean [5]: 19088.9 ng/mL
- Urine Concentration, Median [5]: 16800.0 ng/mL
- Urine Concentration, Mean [6]: 20537.8 ng/mL
- Urine Concentration, Median [6]: 15500.0 ng/mL
- Urine Concentration, Mean [7]: 32407.3 ng/mL
- Urine Concentration, Median [7]: 33700.0 ng/mL
- Urine Concentration, Mean [8]: 19981.0 ng/mL
- Urine Concentration, Median [8]: 13650.0 ng/mL
- Urine Concentration, Mean [9]: 11699.0 ng/mL
- Urine Concentration, Median [9]: 8995.0 ng/mL
- Urine Concentration, Mean [10]: 22410.0 ng/mL
- Urine Concentration, Median [10]: 19300.0 ng/mL
- Urine Concentration, Mean [11]: 20772.0 ng/mL
- Urine Concentration, Median [11]: 21300.0 ng/mL
- Urine Concentration, Mean [12]: 25713.0 ng/mL
- Urine Concentration, Median [12]: 19550.0 ng/mL
- fe0-24 [dose absorbed] [13]: 20.4%
- fe0-24 [dose administered] [13]: 20.4%
- Ae0-24 (amount excreted in urine) (Day 1, 200 mg IV, 300 mg po (n = 11), total dose 200 IV): 40.70 mg
- fe0-24 [dose absorbed] (Day 1, 300 mg po (n = 10)): 18.7%
- fe0-24 [dose administered] (Day 1, 300 mg po (n = 10)): 6.5%
- Ae0-24 (amount excreted in urine) (Day 1, 300 mg po (n = 10), total dose 600 po): 39.24 mg
- fe0-24 [dose absorbed] (Day 1, 450 mg po (n = 10)): 11.4%
- fe0-24 [dose administered] (Day 1, 450 mg po (n = 10)): 4.0%
- Ae0-24 (amount excreted in urine) (Day 1, 450 mg po (n = 10), total dose 900 po): 35.95 mg
- Urine Concentration, Mean [14]: 42710.0 ng/mL
- Urine Concentration, Median [14]: 26250.0 ng/mL
- Urine Concentration, Mean [15]: 30900.0 ng/mL
- Urine Concentration, Median [15]: 26850.0 ng/mL
- Urine Concentration, Mean [16]: 35988.9 ng/mL
- Urine Concentration, Median [16]: 25700.0 ng/mL
- Urine Concentration, Mean [17]: 26090.0 ng/mL
- Urine Concentration, Median [17]: 28500.0 ng/mL
- Urine Concentration, Mean [18]: 29111.1 ng/mL
- Urine Concentration, Median [18]: 18200.0 ng/mL
- Urine Concentration, Mean [19]: 48117.0 ng/mL
- Urine Concentration, Median [19]: 33700.0 ng/mL
- Urine Concentration, Mean [20]: 33237.0 ng/mL
- Urine Concentration, Median [20]: 14850.0 ng/mL
- Urine Concentration, Mean [21]: 25350.0 ng/mL
- Urine Concentration, Median [21]: 19600.0 ng/mL
- Urine Concentration, Mean [22]: 30466.0 ng/mL
- Urine Concentration, Median [22]: 20600.0 ng/mL
- Urine Concentration, Mean [23]: 21480.0 ng/mL
- Urine Concentration, Median [23]: 12590.0 ng/mL
- Urine Concentration, Mean [24]: 17940.0 ng/mL
- Urine Concentration, Median [24]: 16000.0 ng/mL
- Urine Concentration, Mean [25]: 30280.0 ng/mL
- Urine Concentration, Median [25]: 23400.0 ng/mL
- fe0-24 [dose absorbed] [26]: 30.7%
- fe0-24 [dose administered] [26]: 10.8%
- Ae0-24 (amount excreted in urine) (Day 5, 200 mg IV, 300 mg po (n = 11), total dose 300 po): 32.27 mg
- fe0-24 [dose absorbed] (Day 5, 300 mg po (n = 10)): 36.4%
- fe0-24 [dose administered] (Day 5, 300 mg po (n = 10)): 12.7%
- Ae0-24 (amount excreted in urine) (Day 5, 300 mg po (n = 10), total dose 300 po): 38.21 mg
- fe0-24 [dose absorbed] (Day 5, 450 mg po (n = 10)): 34.8%
- fe0-24 [dose administered] (Day 5, 450 mg po (n = 10)): 12.2%
- Ae0-24 (amount excreted in urine) (Day 5, 450 mg po (n = 10), total dose 450 po): 54.87 mg
- clearance (intravenous, 200 mg, Day 1, IV_PO300, read-out: Renal CL, Geo. Mean (converted)): 33 mL/min
- clearance (intravenous, 200 mg, Day 1, IV_PO300, read-out: Renal CL, Mean (converted)): 38.3 mL/min
- clearance (intravenous, 200 mg, Day 1, IV_PO300, read-out: Renal CL, Median (converted)): 27.2 mL/min
- clearance (oral, 300 mg, Day 5, IV_PO300, read-out: Renal CL, Geo. Mean (converted)): 63 mL/min
- clearance (oral, 300 mg, Day 5, IV_PO300, read-out: Renal CL, Mean (converted)): 94.6 mL/min
- clearance (oral, 300 mg, Day 5, IV_PO300, read-out: Renal CL, Median (converted)): 44 mL/min
- clearance (oral, 300 mg, Day 5, PO300, read-out: Renal CL, Geo. Mean (converted)): 57.4 mL/min
- clearance (oral, 300 mg, Day 5, PO300, read-out: Renal CL, Mean (converted)): 78.2 mL/min
- clearance (oral, 300 mg, Day 5, PO300, read-out: Renal CL, Median (converted)): 58.6 mL/min
- clearance (oral, 450 mg, Day 5, PO450, read-out: Renal CL, Geo. Mean (converted)): 21.5 mL/min
- clearance (oral, 450 mg, Day 5, PO450, read-out: Renal CL, Mean (converted)): 29.1 mL/min
- clearance (oral, 450 mg, Day 5, PO450, read-out: Renal CL, Median (converted)): 27.8 mL/min
- Ae 0-4 hrs, Geo. Mean (urine, Day 1, IV_PO300): 11.59 mg
- Ae 0-4 hrs, Mean (urine, Day 1, IV_PO300): 13.80 mg
- Ae 0-4 hrs, Median (urine, Day 1, IV_PO300): 9.74 mg
- Ae 0-24 hrs, Geo. Mean (urine, Day 1, IV_PO300): 36.98 mg
- Ae 0-24 hrs, Median (urine, Day 1, IV_PO300): 41.40 mg
- Ae 4-8 hrs, Geo. Mean (urine, Day 1, IV_PO300): 7.28 mg
- Ae 4-8 hrs, Mean (urine, Day 1, IV_PO300): 8.61 mg
- Ae 4-8 hrs, Median (urine, Day 1, IV_PO300): 7.96 mg
- Ae 8-12 hrs, Geo. Mean (urine, Day 1, IV_PO300): 5.53 mg
- Ae 8-12 hrs, Mean (urine, Day 1, IV_PO300): 6.80 mg
- Ae 8-12 hrs, Median (urine, Day 1, IV_PO300): 6.17 mg
- Ae 12-24 hrs, Geo. Mean (urine, Day 1, IV_PO300): 12.70 mg
